Several values for one entry are separate records, joined by “and”; a condition that tells them apart may be missing. Identical values can stand only once. Marks after values point to notes of the source that are not given here.
Legend:
[1] = UV/VIS comparative spectral absorption; format: physicochemical
From the text: The AEDA was subjected to a UV/VIS spectral analysis at 200-400 nm to determine the peak absorbency of the compounds with UV absorbing characteristics present in the AEDA. A SHIMADZU UV-160 photospectrometer was used for this purpose, with the samples diluted in ethanol until a visible reading in the spectrum was obtained.
The AEDA absorption spectra show maximum absorption at wavelengths under 240 nm. In the band from approximately 250 nm to 350 nm. AEDA offers stable absorbency between 0.75 and 1.5 UA that blocks a significant amount of UVC, UVB and the more energetic portion of UVA light. Part of its effects may therefore be due to a screen effect that prevents the luminous radiation from reaching the skin.
The first two are located before the UVC band, and the third appears above 285 nm and extends to almost 340 nm. This behavior is typical of the polyphenols present in numerous vegetals, which provide and an effective screen effect that protects plants from solar light. When comparing the concentrations required to reach similar absorbencies, it can be observed that ferulic acid develops its effective blocking ability at 50 μg/ml, whereas with AEDA, 500 μg/ml produce a block equivalent to 50% of that obtained with 50 μg/ml of ferulic acid. To produce similar blocking intensities, the necessary concentrations of AEDA must be 10 to 50 times higher than with ferulic acid.

[2] = system: rat skin under UVB radiation; test: Second test: UVB-induced dermal erythema and sunburnt cells in rat skin; format: in vivo; parameters: key to presence or absence of erythema or its manifestations in the treated area, per animal: presence (+); absence (−)
Description: They were acclimatized to the location where the tests were carried out during 7 days after being received. […] The animals were fed ad libitum with a standard rodent diet and running water during this period and during the experimental period. […] The products to be tested were applied directly on the skin as a gel. The test was conducted following the method described by Winder et al. “A Study of Pharmacological Influences of Ultraviolet Erythema in Guinea Pigs”. Arch. Int Pharmacodyn, 116: 261-292. 1958, and other authors such as Wendy, J et al. “The Local Antinociceptive and Topical Anti-inflammatory Effects of Propyl Gallate in Rodents”. Br. J. Pharmacol, 58: 573-581. 1976, and […]. et al. “Protective Effects of Silymarin Against Photocarcinogenesis in a Mouse Skin Model”. J. Natl. Cancer Inst. 89: 556-65. 1997, with slight modifications. The animals were shaved clean six days before the test to eliminate all traces of hair, leaving the skin on their backs completely bare. A morning (10:00 h) and evening (20:00 h) dosage regime for the substance to be tested or for the standard commenced on the first day of the test on a randomized and blind basis lasting 3 days. On the third day, after applying the corresponding morning treatments, the animals were placed and secured in the equipment's exposure platform. The animals were then placed 8 cm from the 4*40 W ultraviolet light source emitting at a fundamental frequency of 313 nm and in a range from approximately 290 to 350 nm, with an anti-UVC filter. The exposure was maintained until all animals received a total dosage of approximately 2.5 kJ/m2, with the irradiation dosis determined by means of an ultraviolet light detector. The backs of the animals were photographed 24 hours after the exposure, and the animals were sacrificed by cervical dislocation. The back skin was removed and a 2×2 cm fragment located under the area were the substance to be tested was applied was placed and maintained for 6 hours in a jar with 10% tamponated formalin, before initiating the paraffin inclusion process and preparation for the histological study. The preparations were observed under an optical microscope and the epidermal-dermal space was photographed at ×100 magnification in 5 different locations for each preparation. A count of sunburnt cells was made for each photograph, considering cells as sunburnt if they had hypereosinophilic cytoplasm with small dark and irregular dense nuclei different than those of its neighbors. The evaluation of the erythema was made on a positive/negative basis, obtaining the percentage of protected animals. The number of hypereosinophilic cells with pyknotic nuclei (sunburnt) was counted in the photographic fields for each of the five different sectors in each histological preparation. The sum of the five counts was considered as the value for each animal. […] The statistical significance of the differences was evaluated by means of non-parametric tests, such as the Fisher Test or the χ^2 (Chi Squared).

[3] = EDA 300 mg/ml or ferulic acid 0.5% topical, p < 0.01 versus Vehicle

## COc1cc(/C=C/C(=O)O)ccc1O [Ferulic Acid, ferulic acid]
[1]
  concentration at which effective UV blocking ability develops: 50 µg/mL
[2]; 10 animals per group, EDA 300 mg/ml or ferulic acid 0.5% topical, positive control vehicle 32.7 ± 1.52
  number of sunburnt cells, Average ± S.E.M.: 5.2 ± 1.08
[2]; AEDA 300 mg/ml or ferulic acid 0.5% topical, histology
  number of sunburnt cells (in words): small
[2]; EDA 300 mg/ml or ferulic acid 0.5% topical
  erythema, % inhibition versus Positive Control Vehicle (suppression, subjective criteria): 90%
[2]; [3]
  erythema, % Protected animals: 70%*
  sunburnt cells, % inhibition versus Positive Control Vehicle: 84.1%*
[2]; EDA 300 mg/ml or ferulic acid 0.5% topical, p < 0.01 versus Vehicle, listed as ferulic acid
  erythema, % Protected animals: 70%
[2]; individual animals 1-10, EDA 300 mg/ml or ferulic acid 0.5% topical, 24 hours after UVB exposure
  presence or absence of erythema or its manifestations in the treated area, per animal: − (6×) and + (3×)
[2]; individual animals 1-10, EDA gel 300 mg/ml or ferulic acid gel 0.5%, 100 μl topical twice daily for 3 days, UVB approx. 2.5 kJ/m2, 24 hours after exposure
  number of sunburnt cells per animal (sum of five counts): 8 and 4 (2×) and 3 (2×) and 2 and 10 and 0 and 11 and 7

— patent publication US8357407B2, “Agent for cutaneous photoprotection against UVA/UVB rays” (priority 2009, dated 2013)
